Results on 40 compounds are retold here after ChEMBL document CHEMBL1158384, “Design, synthesis, and biological evaluation of 1,5-benzothiazepine-4-one derivatives targeting factor VIIa/tissue factor” (Bioorg Med Chem Lett, 2009).

One assay addresses Prothrombin (Homo sapiens, UniProt P00734). Kind of assay: Inhibition of human factor 2a by spectrophotometry.
For assay [1], the target named is Coagulation factor VII/tissue factor (Homo sapiens, UniProt P08709). Briefly: Inhibition of human tissue factor/factor 7a. The format is protein-complex assay.
Coagulation factor VII/tissue factor, sequence (P08709 61-212 limits assumed): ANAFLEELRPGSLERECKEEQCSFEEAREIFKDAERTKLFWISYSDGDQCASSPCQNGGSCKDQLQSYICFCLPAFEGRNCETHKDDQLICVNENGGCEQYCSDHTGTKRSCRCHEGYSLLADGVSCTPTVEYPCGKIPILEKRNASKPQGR
Coagulation factor VII/tissue factor, sequence (P08709 213-466 limits assumed): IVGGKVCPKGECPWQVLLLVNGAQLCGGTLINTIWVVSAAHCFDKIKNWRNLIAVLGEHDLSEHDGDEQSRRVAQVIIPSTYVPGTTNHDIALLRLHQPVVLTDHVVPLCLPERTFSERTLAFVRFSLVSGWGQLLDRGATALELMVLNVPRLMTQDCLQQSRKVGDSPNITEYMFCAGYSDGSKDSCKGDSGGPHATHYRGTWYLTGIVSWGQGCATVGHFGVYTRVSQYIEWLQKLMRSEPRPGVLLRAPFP
Coagulation factor VII/tissue factor, sequence (P13726 33-295 partner limits assumed): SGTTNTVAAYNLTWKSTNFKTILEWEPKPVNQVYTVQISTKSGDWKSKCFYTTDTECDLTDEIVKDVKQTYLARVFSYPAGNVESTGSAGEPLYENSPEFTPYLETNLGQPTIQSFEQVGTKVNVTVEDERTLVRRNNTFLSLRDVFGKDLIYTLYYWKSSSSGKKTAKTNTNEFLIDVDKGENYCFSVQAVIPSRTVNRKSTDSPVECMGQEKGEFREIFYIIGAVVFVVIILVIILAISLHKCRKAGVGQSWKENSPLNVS
The target of another assay is Coagulation factor X (Homo sapiens, UniProt P00742). Briefly: Inhibition of human factor 10a by spectrometry.
Coagulation factor X, sequence (P00742 41-179 limits assumed): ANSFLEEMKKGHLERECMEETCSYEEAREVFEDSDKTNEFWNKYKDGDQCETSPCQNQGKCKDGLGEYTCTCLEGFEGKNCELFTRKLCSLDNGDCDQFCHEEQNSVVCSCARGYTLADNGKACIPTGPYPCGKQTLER
Coagulation factor X, sequence (P00742 235-488 limits assumed): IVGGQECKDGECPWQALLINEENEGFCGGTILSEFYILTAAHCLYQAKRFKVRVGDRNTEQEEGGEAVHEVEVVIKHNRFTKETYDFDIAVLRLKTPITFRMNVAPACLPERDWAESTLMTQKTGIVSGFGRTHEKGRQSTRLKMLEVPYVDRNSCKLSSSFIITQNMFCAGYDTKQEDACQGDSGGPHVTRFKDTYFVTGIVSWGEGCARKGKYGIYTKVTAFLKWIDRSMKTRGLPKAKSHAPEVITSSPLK

The structures appear in SMILES notation. Bounds are passed on as bounds.

On to `N=C(N)c1ccc(CNC(=O)CCN2C(=O)[C@@H](NC(=O)CCC(=O)O)CSc3ccccc32)cc1`, for which the IC50 – broadly, the concentration at which inhibition is half-maximal – against Prothrombin is > 33 µM; in assay [1], 166 µM.
Regarding `Cc1nc(N)ccc1CNC(=O)CCN1C(=O)[C@H](NCC(=O)O)CSc2ccccc21`, the IC50 in assay [1] was > 33 µM.
Turning to `N=C(N)c1ccc(CNC(=O)CN2C(=O)[C@H](NS(=O)(=O)Cc3ccccc3)CSc3ccc(CC(=O)O)cc32)cc1`, the 50% inhibitory concentration (IC50) against Prothrombin was determined as 33 µM; in assay [1], 2.98 µM; at Coagulation factor X it was 0.21 µM.
In the case of `CC(=O)N[C@@H]1CSc2ccccc2N(CCC(=O)NCc2ccc(C(=N)N)cc2)C1=O`, the IC50 in assay [1] is 233 µM.
As for `N=C(N)c1ccc(CNC(=O)CN2C(=O)C(NS(=O)(=O)Cc3ccccc3)CSc3ccccc32)cc1` (single isomer, unassigned), the figures for the IC50 (against Prothrombin; in assay [1]; against Coagulation factor X) were 0.37 µM, 2.16 µM and 3.28 µM, respectively.
Turning to `N=C(N)c1ccc(CNC(=O)CN2C(=O)[C@H](NS(=O)(=O)Cc3ccccc3)CSc3ccc(-c4ccccc4)cc32)cc1`, inhibition in assay [1] was half-maximal at 10.9 µM (IC50).
For `Cc1nc(N)ccc1CNC(=O)CN1C(=O)[C@H](NCC(=O)O)CSc2ccccc21`, the half-maximal inhibitory concentration (IC50) in assay [1] was > 33 µM.
Regarding `N=C(N)c1ccc(CNC(=O)CN2C(=O)[C@H](NS(=O)(=O)Cc3ccccc3)CSc3ccc(CC(N)C(=O)O)cc32)cc1` (stereo partly drawn), the IC50 against Prothrombin came to 33 µM; in assay [1], 1.5 µM; against Coagulation factor X, 1.05 µM.
Consider `N=C(N)c1ccc(CNC(=O)CN2C(=O)[C@H](NS(=O)(=O)Cc3ccccc3)CSc3cc(CCC(=O)O)ccc32)cc1`, for which, in assay [1], half-maximal inhibition (IC50) required 13.1 µM.
In the case of `Cc1nc(N)ccc1CNC(=O)CN1C(=O)[C@H](NS(=O)(=O)Cc2ccccc2)CSc2ccccc21`, the IC50 in assay [1] is > 33 µM.
For the compound `N=C(N)c1ccc(CNC(=O)CN2C(=O)[C@@H](N)CSc3ccccc32)cc1`, the IC50 is 87 µM against Prothrombin and 24.4 µM in assay [1].
Consider `N=C(N)c1ccc(CNC(=O)CN2C(=O)[C@H](NS(=O)(=O)Cc3ccccc3)CSc3ccc(CN)cc32)cc1`, for which the values for the IC50 (at Prothrombin; in assay [1]; on Coagulation factor X) were 10 µM, 1.86 µM and 1.72 µM, respectively.
With `N=C(N)c1ccc(CNC(=O)CN2C(=O)[C@H](NS(=O)(=O)Cc3ccccc3)CSc3ccc(N)cc32)cc1`, the results for the IC50 (against Prothrombin; in assay [1]; on Coagulation factor X) were 1.89 µM, 2.3 µM and 1.52 µM, respectively.
In assay [1], `N=C(N)c1ccc(CNC(=O)CCN2C(=O)[C@H](NS(=O)(=O)Cc3ccccc3)CSc3ccccc32)cc1` returned an IC50 of 63 µM.
On the same count and under the same terms, with `N=C(N)c1ccc(CNC(=O)CN2C(=O)[C@H](NCC(=O)O)CSc3ccccc32)cc1` the figure was 15.9 µM; with `N=C(N)c1ccc(CNC(=O)CN2C(=O)[C@H](NS(=O)(=O)Cc3ccccc3)CSc3cc(CC(=O)O)ccc32)cc1`, 14.3 µM.
With `N=C(N)c1ccc(CNC(=O)CN2C(=O)C(NC(=O)CCC(=O)O)CSc3ccccc32)cc1` (single isomer, unassigned), the IC50 on Prothrombin was found to be 300 µM; in assay [1], 81 µM.
As for `N=C(N)c1ccc(CNC(=O)CN2C(=O)[C@H](NS(=O)(=O)Cc3ccccc3)CSc3cc(C(=O)O)ccc32)cc1`, the IC50 in assay [1] was > 33 µM.
Take `N=C(N)c1ccc(CNC(=O)CN2C(=O)[C@H](NS(=O)(=O)Cc3ccccc3)CSc3ccc(-c4cccc([N+](=O)[O-])c4)cc32)cc1`: the IC50 at Prothrombin was determined as 0.79 µM; in assay [1], 5.96 µM; on Coagulation factor X it was 2.81 µM.
With `CC(=O)N[C@H]1CSc2ccccc2N(CC(=O)NCc2ccc(C(=N)N)cc2)C1=O`, the IC50 on Prothrombin was determined as 100 µM; in assay [1], 37.3 µM.
For `N=C(N)c1ccc(CNC(=O)CCN2C(=O)[C@H](NC(=O)CCC(=O)O)CSc3ccccc32)cc1`, the IC50 in assay [1] was determined as 61 µM.
On the same count and under the same terms, with `N=C(N)c1ccc(CNC(=O)CN2C(=O)[C@H](NS(=O)(=O)Cc3ccccc3)CSc3ccc(C(=O)O)cc32)cc1` the figure was 4.67 µM.
As for `N=C(N)c1ccc(CNC(=O)CN2C(=O)[C@H](NS(=O)(=O)Cc3ccccc3)CSc3ccc(CCC(=O)O)cc32)cc1`, the IC50 against Prothrombin worked out at 33 µM; in assay [1], 2.64 µM; at Coagulation factor X, 2.03 µM.
The like results for `N=C(N)c1ccc(CNC(=O)CN2C(=O)[C@H](NS(=O)(=O)Cc3ccccc3)CSc3cc(N)ccc32)cc1` were, in that order, 7.05 µM, 4.86 µM and 1.63 µM.
Take `CC(=O)N[C@H]1CSc2ccccc2N(CCC(=O)NCc2ccc(C(=N)N)cc2)C1=O`: in assay [1], 168 µM corresponded to half-maximal inhibition (IC50).
Consider `N=C(N)c1ccc(CNC(=O)CN2C(=O)[C@H](NC(=O)C(c3ccccc3)c3ccccc3)CSc3ccccc32)cc1`, for which, in assay [1], the IC50 is > 33 µM.
In the case of `N=C(N)c1ccc(CNC(=O)CN2C(=O)[C@H](NS(=O)(=O)Cc3ccccc3)CSc3ccc(-c4cccc(N)c4)cc32)cc1`, the values for the IC50 (on Prothrombin; in assay [1]; on Coagulation factor X) were 10 µM, 6.86 µM and 3.23 µM, respectively.
With `CC(=O)N[C@H]1CSc2ccccc2N(CC(=O)NCc2ccc(N)nc2C)C1=O`, the IC50 against Prothrombin is 130 µM; in assay [1] it was > 300 µM.
The like results for `CC(=O)N[C@@H]1CSc2ccccc2N(CC(=O)NCc2ccc(N)nc2C)C1=O` were, in that order, 133 µM and > 300 µM.
The like results for `Cc1nc(N)ccc1CNC(=O)CN1C(=O)[C@H](N)CSc2ccccc21` were, in that order, 88 µM and > 300 µM.
In the case of `N=C(N)c1ccc(CNC(=O)CCN2C(=O)[C@@H](NS(=O)(=O)Cc3ccccc3)CSc3ccccc32)cc1`, the midpoint of inhibition in assay [1], the IC50, lay at 19.7 µM.
For `Cc1nc(N)ccc1CNC(=O)CN1C(=O)[C@@H](N)CSc2ccccc21`, the values for the IC50 (at Prothrombin; in assay [1]) were 88 µM and > 300 µM, respectively.
Regarding `N=C(N)c1ccc(CNC(=O)CN2C(=O)[C@H](NS(=O)(=O)Cc3ccccc3)CSc3ccc(CCN)cc32)cc1`, the figures for the IC50 (at Prothrombin; in assay [1]; on Coagulation factor X) were 6.23 µM, 1.32 µM and 2.79 µM, respectively.
In the case of `N=C(N)c1ccc(CNC(=O)CN2C(=O)[C@@H](NC(=O)CCC(=O)O)CSc3ccccc32)cc1`, the concentration for half-maximal inhibition (IC50) is > 300 µM against Prothrombin and 27.7 µM in assay [1].
Take `Cc1nc(N)ccc1CNC(=O)CCN1C(=O)[C@H](NS(=O)(=O)Cc2ccccc2)CSc2ccccc21`: in assay [1], the IC50 was > 33 µM.
For `CC(=O)N[C@@H]1CSc2ccccc2N(CC(=O)NCc2ccc(C(=N)N)cc2)C1=O`, the IC50 in assay [1] worked out at 90 µM.
For the compound `N=C(N)c1ccc(CNC(=O)CCN2C(=O)[C@H](NCC(=O)O)CSc3ccccc32)cc1`, the midpoint of inhibition in assay [1], the IC50, lay at 95 µM.
As to `N=C(N)c1ccc(CNC(=O)CCN2C(=O)[C@@H](NCC(=O)O)CSc3ccccc32)cc1`, the IC50 against Prothrombin is 33 µM; in assay [1], > 330 µM.
The like results for `N=C(N)c1ccc(CNC(=O)CN2C(=O)[C@@H](NS(=O)(=O)Cc3ccccc3)CSc3ccccc32)cc1` were, in that order, 48 µM and 27.9 µM.
Consider `N=C(N)c1ccc(CNC(=O)CN2C(=O)[C@H](NS(=O)(=O)Cc3ccccc3)CSc3cc(CN)ccc32)cc1`, for which the half-maximal inhibitory concentration (IC50) on Prothrombin was 10 µM; in assay [1], 5.6 µM; on Coagulation factor X, 0.8 µM.
